This passage reports IC50 results from patent publication US8785436B2, “1,3-oxazines as BACE 1 and/or BACE2 inhibitors” (Hoffmann-La Roche Inc., priority 2011, dated 2014).

Assay [1] concerns the target T1, BACE2 (Rattus norvegicus, UniProt Q6IE75).
T1 construct: endogenous cellular BACE2 in the Ins1e rat cell line; endogenous in cells; host or cells: INS-TMEM27 (INS1e-derived rat cell line with TetOn-inducible full-length hTMEM27)
T1 sequence (Q6IE75 63-514): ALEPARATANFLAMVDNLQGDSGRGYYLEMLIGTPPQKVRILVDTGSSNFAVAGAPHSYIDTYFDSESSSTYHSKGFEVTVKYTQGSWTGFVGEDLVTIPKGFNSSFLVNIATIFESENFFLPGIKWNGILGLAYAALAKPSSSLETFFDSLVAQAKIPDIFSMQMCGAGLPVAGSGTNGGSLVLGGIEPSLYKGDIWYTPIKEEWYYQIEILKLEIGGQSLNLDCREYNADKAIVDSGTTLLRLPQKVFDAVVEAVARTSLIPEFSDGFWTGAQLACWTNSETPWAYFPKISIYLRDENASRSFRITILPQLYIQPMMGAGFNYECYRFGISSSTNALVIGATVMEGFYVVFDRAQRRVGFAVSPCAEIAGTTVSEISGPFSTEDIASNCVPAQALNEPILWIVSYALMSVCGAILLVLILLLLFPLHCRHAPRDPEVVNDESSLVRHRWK
As to the kind of experiment: BACE inhibition by measuring cellular TMEM27 cleavage (INS-TMEM27 cells, ELISA). Format: cell-based. Conditions: INS-TMEM27 (Ins1e rat) cells, shed human TMEM27 by ELISA; read-out: BACE2 cell act. IC50. From the text:
Assay for BACE Inhibition by Measuring Cellular TMEM27 Cleavage:
The assay uses the principle of inhibition of human TMEM27 cleavage by endogenous cellular BACE2 in the Ins1e rat cell line and shedding from the cell surface into the culture medium, followed by detection in an ELISA assay Inhibition of BACE2 prevents the cleavage and shedding in a dose-dependent manner.
The stable cell line “INS-TMEM27” represents an INS1e-derived cell line with inducible expression (using the TetOn system) of full-length hTMEM27 in a doxycycline-dependent manner. The cells are cultured throughout the experiment in RPMI1640+Glutamax (Invitrogen) Penicillin/Streptomycin, 10% Fetal bovine serum, […], […], 100 micrograms/ml G418 and 100 microgram/ml hygromycin and are grown inadherent culture at 37° C. in a standard CO2 cell culture incubator.
INS-TMEM27 cells are seeded in 96-well plates. After 2 days in culture, BACE2 inhibitor is added in a range of concentrations as required by the assay and after a further two hours, doxycycline is added to a final concentration of 500 ng/ml. The cells are incubated for a further 46 hours and the supernatant harvested for detection of shed TMEM27.
An ELISA assay (using a pair of mouse anti-human-TMEM27 antibodies, raised against the extracellular domain of TMEM27) is used for detection of TMEM27 in the culture medium. An EC50 for BACE2 inhibition is calculated using the ELISA readout for each inhibitor concentration with standard curve-fitting software such as XLFit for the Excel spreadsheet program.
Background: ELISA stands for enzyme-linked immunosorbent assay.

In assay [2] the target is T2, BACE1 (Homo sapiens, UniProt P56817).
T2 construct: Human HEK293 cells which are stably transfected with a vector expressing a cDNA of the human APP wt gene (APP695); endogenous in cells; host or cells: HEK293 cells stably expressing human APP695 wt
The assay is described as follows: Cellular Aβ-lowering assay a) (Aβ40 ELISA, HEK293 APP cells). Format: cell-based. The conditions noted are these: cellular assay a): HEK293 APP695 cells, 18-20 hrs incubation, read-out: BACE1 cell act. Aβ40 IC50. As for the experimental part:
Cellular Aβ-Lowering Assay:
a) Human HEK293 cells which are stably transfected with a vector expressing a cDNA of the human APP wt gene (APP695) were used to assess the potency of the compounds in a cellular assay. The cells were seeded in 96-well microtiter plates in cell culture medium (Iscove, plus 10% (v/v) fetal bovine serum, glutamine, penicillin/streptomycin) to about 80% confluence and the compounds were added at a 10× concentration in 1/10 volume of medium without FCS containing 8% DMSO (final concentration of DMSO was kept at 0.8% v/v). After 18-20 hrs incubation at 37° C. and 5% CO2 in a humidified incubator the culture supernatant was harvested for the determination of Aβ40 concentrations. 96 well ELISA plates (e.g., Nunc MaxiSorb) were coated with monoclonal antibody which specifically recognize the C-terminal end of Aβ40 (Brockhaus et al., NeuroReport 9, 1481-1486; 1998). After blocking of non-specific binding sites with e.g. 1% BSA and washing, the culture supernatants were added in suitable dilutions together with a horseradish peroxidase-coupled Aβ detection antibody (e.g., antibody 4G8, Senetek, Maryland Heights, Mo.) and incubated for 5 to 7 hrs. Subsequently the wells of the microtiter plate were washed extensively with Tris-buffered saline containing 0.05% Tween 20 and the assay was developed with tetramethylbenzidine/H2O2 in citric acid buffer. After stopping the reaction with one volume 1 NH2SO4 the reaction was measured in an ELISA reader at 450 nm wavelength. The concentrations of Aβ in the culture supernatants were calculated from a standard curve obtained with known amounts of pure Aβ peptide.

T2 sequence (P56817 46-501): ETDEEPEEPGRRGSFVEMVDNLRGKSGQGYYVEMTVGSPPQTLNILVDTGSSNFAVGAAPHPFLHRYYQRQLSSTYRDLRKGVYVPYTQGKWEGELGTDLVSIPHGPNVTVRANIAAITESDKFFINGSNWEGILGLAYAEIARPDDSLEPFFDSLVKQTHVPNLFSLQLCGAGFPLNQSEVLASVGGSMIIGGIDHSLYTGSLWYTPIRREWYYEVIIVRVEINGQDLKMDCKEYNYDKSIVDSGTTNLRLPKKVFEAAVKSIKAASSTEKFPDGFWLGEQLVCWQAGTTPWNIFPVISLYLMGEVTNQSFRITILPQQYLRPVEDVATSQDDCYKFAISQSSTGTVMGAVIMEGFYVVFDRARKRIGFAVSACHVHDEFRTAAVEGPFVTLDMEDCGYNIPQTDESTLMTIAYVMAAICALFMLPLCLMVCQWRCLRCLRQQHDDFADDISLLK

The IC50 is the concentration needed to halve the response being measured. As to `Cc1nc(C(C)Nc2ccc(F)c([C@@]3(C)N=C(N)OC[C@]3(C)F)c2)c(C(F)(F)F)o1` (mixture of isomers) [Example 14, (4R,5R)-5-Fluoro-4-{2-fluoro-5-[(RS)-1-(2-methyl-5-trifluoromethyl-oxazol-4-yl)-ethylamino]-phenyl}-4,5-dimethyl-5,6-dihydro-4H-[1,3]oxazin-2-ylamine], the IC50 in assay [1] stood at 68 nM. Consider `C[C@]1(c2cc(NC3CCc4cc(C#N)cnc43)ccc2F)N=C(N)OCC1(F)F` (mixture of isomers) [Example 22, (RS)-7-[3-((R)-2-Amino-5,5-difluoro-4-methyl-5,6-dihydro-4H-[1,3]oxazin-4-yl)-4-fluoro-phenylamino]-6,7-dihydro-5H-[1]pyrindine-3-carbonitrile], for which the IC50 in assay [2] is 11 nM; in assay [1], 753 nM. As for `C[C@]1(c2cc(NC3CCc4cc(Cl)cnc43)ccc2F)N=C(N)OCC1(F)F` (mixture of isomers) [Example 23, [3-((R)-2-Amino-5,5-difluoro-4-methyl-5,6-dihydro-4H-[1,3]oxazin-4-yl)-4-fluoro-phenyl]-((RS)-3-chloro-6,7-dihydro-5H-[1]pyrindin-7-yl)-amine], the IC50 in assay [2] was 73 nM; in assay [1], 1700 nM. For `C[C@@]1(c2cc(NCc3nn(C(F)F)cc3Cl)ccc2F)CCOC(N)=N1` [Example 1, (S)-4-{5-[(4-Chloro-1-difluoromethyl-1H-pyrazol-3-ylmethyl)-amino]-2-fluoro-phenyl}-4-methyl-5,6-dihydro-4H-[1,3]oxazin-2-ylamine] the same measures were 13 nM and 180 nM. The like results for `COc1ccccc1Nc1ccc(F)c([C@@]2(C)N=C(N)OC[C@@H]2F)c1` [Example 3, (4R,5R)-5-Fluoro-4-[2-fluoro-5-(2-methoxy-phenylamino)-phenyl]-4-methyl-5,6-dihydro-4H-[1,3]oxazin-2-ylamine] were, in that order, 310 nM and 970 nM. For `C[C@]1(c2cc(Nc3ccccc3OC(F)F)ccc2F)N=C(N)OC[C@@H]1F` [Example 4, (4R,5R)-4-[5-(2-Difluoromethoxy-phenylamino)-2-fluoro-phenyl]-5-fluoro-4-methyl-5,6-dihydro-4H-[1,3]oxazin-2-ylamine], the IC50 in assay [2] worked out at 370 nM; in assay [1], 1810 nM. On to `C[C@]1(c2cc(NCc3cccs3)ccc2F)N=C(N)OC[C@@H]1F` [Example 5, (4R,5R)-5-Fluoro-4-{2-fluoro-5-[(thiophen-2-ylmethyl)-amino]-phenyl}-4-methyl-5,6-dihydro-4H-[1,3]oxazin-2-ylamine], for which the IC50 in assay [2] was 540 nM; in assay [1], 1130 nM. Take `C[C@]1(c2cc(NCc3ccccc3F)ccc2F)N=C(N)OC[C@@H]1F` [Example 7, (4R,5R)-5-Fluoro-4-[2-fluoro-5-(2-fluoro-benzylamino)-phenyl]-4-methyl-5,6-dihydro-4H-[1,3]oxazin-2-ylamine]: the IC50 in assay [2] was determined as 780 nM; in assay [1] it was 240 nM. For `C[C@]1(c2cc(NCC3CC3)ccc2F)N=C(N)OC[C@@H]1F` [Example 8, (4R,5R)-4-[5-(Cyclopropylmethyl-amino)-2-fluoro-phenyl]-5-fluoro-4-methyl-5,6-dihydro-4H-[1,3]oxazin-2-ylamine], the IC50 was 22 nM in assay [2] and 164 nM in assay [1].

As to `C[C@]1(F)COC(N)=N[C@]1(C)c1cc(NCc2nn(C(F)F)cc2Cl)ccc1F` [Example 12, (4R,5R)-4-{5-[(4-Chloro-1-difluoromethyl-1H-pyrazol-3-ylmethyl)-amino]-2-fluoro-phenyl}-5-fluoro-4,5-dimethyl-5,6-dihydro-4H-[1,3]oxazin-2-ylamine], the figures for the IC50 in assay [2] and in assay [1] were 39 nM and 588 nM, respectively.

Consider `Cn1cc(Cl)c(CNc2ccc(F)c([C@@]3(C)N=C(N)OC[C@]3(C)F)c2)n1` [Example 13, (4R,5R)-4-{5-[(4-Chloro-1-methyl-1H-pyrazol-3-ylmethyl)-amino]-2-fluoro-phenyl}-5-fluoro-4,5-dimethyl-5,6-dihydro-4H-[1,3]oxazin-2-ylamine], for which the IC50 in assay [2] was 48 nM; in assay [1], 79 nM. `C[C@]1(c2cc(NCc3nn(C(F)F)cc3Cl)ccc2F)N=C(N)OCC1(F)F` [Example 16, (R)-4-{5-[(4-Chloro-1-difluoromethyl-1H-pyrazol-3-ylmethyl)-amino]-2-fluoro-phenyl}-5,5-difluoro-4-methyl-5,6-dihydro-4H-[1,3]oxazin-2-ylamine]: the concentration for half-maximal inhibition (IC50) in assay [2] turned out to be 113 nM; in assay [1] it was 2520 nM.

In the case of `C[C@]1(c2cc(NCC3CC3)ccc2F)N=C(N)OCC1(F)F` [Example 25, (R)-4-[5-(Cyclopropylmethyl-amino)-2-fluoro-phenyl]-5,5-difluoro-4-methyl-5,6-dihydro-4H-[1,3]oxazin-2-ylamine], the IC50 in assay [2] is 310 nM; in assay [1], 1650 nM. For `Cc1ccc(Cc2cc3cc(F)c([C@@]4(C)N=C(N)OCC4(F)F)cc3[nH]2)cc1` [Example 40, (R)-5,5-Difluoro-4-[5-fluoro-2-(4-methyl-benzyl)-3H-indol-6-yl]-4-methyl-5,6-dihydro-4H-[1,3]oxazin-2-ylamine] the same measures were 6020 nM and 10900 nM. Turning to `CC1(C)OC(N)=N[C@](C)(c2cc(Nc3ccccc3C#N)ccc2F)C1(F)F` [Example 43, 2-[3-((R)-2-Amino-5,5-difluoro-4,6,6-trimethyl-5,6-dihydro-4H-[1,3]oxazin-4-yl)-4-fluoro-phenylamino]-benzonitrile], the IC50 was 1650 nM in assay [2] and 4140 nM in assay [1]. The like results for `COc1ccccc1Nc1ccc(F)c([C@@]2(C)N=C(N)OC(C)(C)C2(F)F)c1` [Example 44, (R)-5,5-Difluoro-4-[2-fluoro-5-(2-methoxy-phenylamino)-phenyl]-4,6,6-trimethyl-5,6-dihydro-4H-[1,3]oxazin-2-ylamine] were, in that order, 2090 nM and 2980 nM. With `CC1(C)OC(N)=N[C@](C)(c2cc(NC3CCCC3)ccc2F)C1(F)F` [Example 48, (R)-4-(5-Cyclopentylamino-2-fluoro-phenyl)-5,5-difluoro-4,6,6-trimethyl-5,6-dihydro-4H-[1,3]oxazin-2-ylamine], the IC50 came out at 290 nM in assay [2] and 1420 nM in assay [1]. With `CC1(C)OC(N)=N[C@](C)(c2cc(-c3cc(Cl)cc(Cl)c3)ccc2F)C1(F)F` [Example 51, (R)-4-(3′,5′-Dichloro-4-fluoro-biphenyl-3-yl)-5,5-difluoro-4,6,6-trimethyl-5,6-dihydro-4H-[1,3]oxazin-2-ylamine], the half-maximal inhibitory concentration (IC50) came out at 14500 nM in assay [2] and 3350 nM in assay [1].
